Results as given in patent publication US20250084056A1, “SUBSTITUTED OXOISOINDOLINYL PIPERIDINE-2,6-DIONE COMPOUNDS” (BRISTOL-MYERS SQUIBB COMPANY, priority 2023, published 2025).

Experiments:
[1] = system: NIHOVCAR3 ovarian adenocarcinoma xenograft model; assay: In vivo xenograft tumor efficacy study, NIHOVCAR3; parameters: species or system mice; settings: OVCAR3 xenografts, repeated dosing
Description: The anti-cancer efficacy of Example 35 was evaluated in xenograft models by measuring the reduction in tumor volume in animals treated with Example 35 compared to vehicle control animals. First, 5-10×10^6 tumor cells/animal in a 1:1 Matrigel® mix (0.2 mL total volume) were injected subcutaneously into female NSG mice (for NIHOVCAR3) and SCID mice (for HCC1569). Both strains of mice were purchased from Jackson Laboratory. Once tumors reached ˜150-200 mm^3, animals were randomized into groups of 8-10 animals/treatment arm for efficacy studies. Example 35 was administered via oral gavage (PO) at indicated doses and regimens (Table 7). Tumor growth and body weight were measured twice/week during the course of the study to evaluate efficacy and signs of toxicity.
Example 35 was formulated in 10% ethanol, 10% Vitamin E—TPGS, 30% propylene glycol, 50% PEG400 and administered by oral gavage (final volume 0.2 mL) at the doses indicated in Table 7. […]
The efficacy for each treated arm at different dose levels were calculated using the following formula: % ΔT/ΔC=[(TVT−TVT0)/(TVC−TVC0)]×100%. […] The percentage of tumor growth inhibition was calculated from the formula: % TGI=[100%−(% ΔT/ΔC)]. […]
Example 35 was evaluated for in vivo single-agent efficacy against the HCC1569 breast carcinoma xenograft model and NIHOVCAR3 ovarian adenocarcinoma xenograft model.

Phospho-Rb (Ser807/811) = assay: Phospho-Retinoblastoma (pRB) Cellular Assay; type: cell-based; settings: Homo sapiens, OVCAR-3, NIH OVCAR3 cells, 24 hours
In short: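 OVCAR3 cells seeded overnight, then dosed with serial dilutions for 24 h at 37° C. Lysed with kit mix plus phosphatase inhibitor, ≥4 h at room temperature, read on EnVision; 100% response set by reference compound at 10 μM, giving IC50 and Ymax.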

IC50 (Phospho-Rb (Ser807/811); concentration giving 50% response): 85 nM
SMILES: COc1c(COC(=O)Nc2ccc(Oc3ccc(F)c(F)c3)cc2)ccc2c1C(=O)N([C@H]1CCC(=O)NC1=O)C2 (single isomer, unassigned) [Example 35, {2-[(3 S)-2,6-dioxopiperidin-3-yl]-4-methoxy-3-oxo-2,3-dihydro-1H-isoindol-5-yl}methyl N-[4-(3,4-difluorophenoxy)phenyl]carbamate]
anti-tumor activity [1]: dose-dependent anti-tumor activity
Emax (Phospho-Rb (Ser807/811); maximum response, reference compound at 10 μM = 100%, read-out: pRB Ymax): 114%
